# “Also recorded” adds a separate entry of the source.
# Tests used:
# BDNF [1] = assay: BDNF mRNA in brain by semi quantitative PCR after two weeks daily oral gavage; format: in vivo, Wildtype C57BL/6J mice; conditions: FIG. 1
# Experimental: As described herein below, mitochondrial uncoupler DNP was tested in a range of doses in mice from 0.5 mg/kg of DNP to 10 mg/kg of DNP under oral chronic treatment to titrate the amount of drug in the brain required to induce increases of BDNF endogenously within the brain. […] Therefore, it was discovered that there is a specific and limited dose range of DNP that is necessary to achieve statistically significant survival and behavioral benefit for a host of diseases that benefit from increased BDNF levels. […]
# BDNF [2] = assay: BDNF protein levels by immunoblot in the EAE mouse model of MS; format: in vivo; conditions: for Intensity of the BDNF band (immunoblot): lumbal spinal cord, Day 42, treated Day 7 to Day 21, FIG. 2a
# Text: The tissue was taken on Day 42 of the study during the recovery phase from the lumbal spinal cord of representative mice that were immunized on Day 1 with the MOG peptide, then treated with MP101 starting on Day 7 and stopping on Day 21. […] Untreated animals are shown as naïve. The changes in BDNF levels are therefore 3-weeks post-treatment with DNP (aka MP101).
# [3] = test system: Experimental Autoimmune Encephalomyelitis (EAE); assay: Clinical scores in the EAE mouse model of MS; format: in vivo; conditions: FIG. 2c
# [4] = test system: Experimental Autoimmune Encephalomyelitis (EAE); assay: Spinal cord electron microscopy in the EAE mouse model of MS; format: in vivo; conditions: 5 mg/kg, Day-16 (peak of onset), vs placebo, FIG. 2d
# Mecp2 mutant mice [5] = assay: Rotarod in Mecp2 mutant mice, a model of Rett Syndrome; format: in vivo, mouse; conditions: 8-weeks of age; 0.5, 1 and 5 mg/kg oral gavage vs mutant vehicle; FIG. 3a
# Experimental: (§1) MP101 was tested in a model of Rett Syndrome using Mecp2 mutant mice. Rett Syndrome is a developmental disorder in young girls, with first symptoms starting at about 18-months of age, including reduced head growth. FIGS. 3a, 3b, 3c and 4 show the effects of treating these mutant mice with MP101 at 0.5, 1 mg/kg and 5 mg/kg by oral gavage.
# In FIGS. 3a and 3b, Mecp2 mutant mice, a model of Rett Syndrome, were treated with MP101 (DNP) at 6-weeks of age and tested on their coordination to walk on a rotating cylinder (rotarod). Wildtype mice are used as a benchmark for general decline in behavior compared to Mecp2 mutant mice treated with Vehicle, 0.5 mg/kg MP101, 1 mg/kg MP101 and 5 mg/kg MP101 by oral gavage.
# Mecp2 mutant mice [6] = assay: Clasping test in Mecp2 mutant mice; format: in vivo, mouse; conditions: 1 mg/kg, 12-weeks of age, 1-month oral gavage, FIG. 4
# Experimental: as §1
# APP/PS1 mice = assay: Morris Water Maze in APP/PS1 mice (Alzheimer's); format: in vivo, mouse; conditions: 0.5, 1 and 5 mg/kg oral gavage for 4-months vs Vehicle, FIGS. 5a-5c
# Experimental: In addition, Alzheimer's Disease, representing about 70% of all dementia cases, was evaluated using the APP/PS1 mice, which express the APPswe mutation and PS1deltaE9 mutation and develop relatively rapid Aβ pathology and cognitive deficits. At 4-months of age, the APP/PS1 mice were treated for 4-months by oral gavage delivery with MP101 (DNP) at 0.5, 1 and 5 mg/kg. […] The amount of time spent in the quadrant is an indicator of whether the mice remember the general location, with increased time indicating increased memory.
# The amount of time spent in the quadrant is an indicator of whether the subject remembers the general location.
# wildtype mice = assay: Kanic acid model of epilepsy, seizure time; format: in vivo, mouse; conditions: FIG. 6
# Experimental: DNP was also evaluated for a treatment of Epilepsy. The kanic acid model is an acute model of epilepsy caused by an injection in the right hippocampus of an analogue of glutamate (kanic acid) that over-stimulates the neurons causing death.
# C57Bl/6 mice = assay: 6-OHDA dopaminergic degeneration, cylinder test in wildtype mice (Parkinson's); format: in vivo, mouse
# Experimental: (§2) The merits of treating Parkinson's Disease with MP101 (DNP) was evaluated in wildtype mice and SIRT3 KO mice with 6-OHDA injections after two weeks of MP101 treatment. We examined the neuroprotective effects of varying MP-101 doses (0.5, 1, 5 mg/kg) against dopaminergic degeneration of nigrostriatal neurons induced by a single unilateral stereotaxic injection of neurotoxin 6-hydroxydopamine (6-OHDA) in the right striatum of the brain of 2-3 month old male C57Bl/6 mice or SIRT3 KO mice. SIRT3 KO is a model of a heightened sensitivity to glutamate-induced calcium overload and excitotoxicity, and oxidative and mitochondrial stress, therefore ideal for evaluating Parkinson's Disease, Huntington's Disease and temporal lobe epilepsy.
# (§3) FIGS. 7a and 7b show the effects of DNP (MP101) treatment for 14-Days by oral gavage in protecting dopaminergic neuronal loss when the right striatum is injected with 6-OHDA after the last day.
# SIRT3 KO mice = assay: 6-OHDA dopaminergic degeneration, rotarod in SIRT3 KO mice (Parkinson's); format: in vivo, mouse; conditions: 14-Days oral gavage, 6-OHDA in right striatum, FIG. 7b
# Experimental: as §2, §3
# N171-82Q HD mice [7] = assay: MRI brain volume in N171-82Q Huntington's Disease mice; format: in vivo, mouse; conditions: N171-82Q HD mice vs HD placebo
# Experimental: (§4) MP101 (DNP) was used in a mouse model of Huntington's Disease, the “Fragment Model” N171-82 HD mice, to determine its neuroprotective effects. The N171-82 HD mice were treated with MP101 at 0.5, 1 and 5 mg/kg by oral gavage daily for greater than 17-weeks. At the age of 26-weeks (17-weeks of treatment), the mice were tested for changes in behavioral, loss of brain volume, spiny neurons and general neurons. FIGS. 8a, 8b, 8c, 8d, 8e, and 8f show the effects of DNP (MP101 drug treatment).
# (§5) FIGS. 8a-8f show the effects of MP101 in the Huntington's Disease model N171-82Q after 13-weeks (age 22 weeks) and/or 17-weeks (age 26-weeks) of treatment with DNP.
# N171-82Q HD mice [8] = assay: Neuronal biomarkers DARPP32 and PSD95 in N171-82Q HD mice; format: in vivo, mouse
# Experimental: as §4, §5
# N171-82Q HD mice [9] = assay: Tapered beam and balance beam motor function in N171-82Q HD mice; format: in vivo, mouse; conditions: after 17-weeks of treatment, FIG. 8f
# Experimental: as §4, §5
# [10] = acute single dose post-ischemia; cited from earlier work
smiles,measurement,setting,value
"O=[N+]([O-])c1ccc(O)c([N+](=O)[O-])c1 [DNP, 2,4-dinitrophenol]",BDNF levels in the brain at the highest dose compared with lower doses,"BDNF [1]; 10.0 mg/kg daily oral gavage, bell-shaped curve",reduced level of BDNF compared with the next two lower doses; also recorded: less BDNF is expressed
same,"BDNF levels in the brain (mRNA, delta-delta CT, percent change relative to placebo)","BDNF [1]; 0.5, 1.0, 5.0 and 10.0 mg/kg daily oral gavage",induce BDNF within the brain; also recorded: increases BDNF levels in the brain
same,Intensity of the BDNF band (immunoblot),BDNF [2]; 0.5 mg/kg and 1 mg/kg vs placebo,increases
same,Intensity of the BDNF band (immunoblot),BDNF [2]; 5 mg/kg,plateau effect
same,BDNF protein level 3-weeks post treatment,"BDNF [2]; EAE model, after 2 weeks of treatment, FIG. 2b",statistically elevated level of BDNF protein; also recorded: BDNF levels are elevated in the brain; also recorded: lasting effect
same,Progression of the phenotype on clinical scores,[3],attenuation of disease progression
same,Myelin sheaths surrounding the axons and axons (electron microscopy),[4],striking axonal protection
same,Myelin sheaths surrounding the axons and axons (electron microscopy),[4]; listed as MP101,completely intact
same,Ability to walk on the rotarod,Mecp2 mutant mice [5],fall less and can handle higher speeds of rotation
same,Clasping test,Mecp2 mutant mice [6],shows an effect
same,"Cognition / short term memory in Morris Water Maze (distance, time in quadrant, entries)",APP/PS1 mice,improved in short term memory
same,"Cognition / short term memory in Morris Water Maze (distance, time in quadrant, entries)",APP/PS1 mice; listed as MP101,improved cognition
same,Seizure time after kanic acid injection,"wildtype mice; 1, 5 and 10 mg/kg oral gavage for 2-weeks before injection",shortening of seizure time
same,Neural protection from over-stimulation by kanic acid,"wildtype mice; 1, 5 and 10 mg/kg oral gavage for 2-weeks, relative to Vehicle",provided neural protection
same,Protection of dopaminergic neurons from 6-OHDA,"C57Bl/6 mice; 0.5, 1, 5 mg/kg for two weeks, C57Bl/6 or SIRT3 KO mice, FIG. 7",protected the dopaminergic neurons
same,Percent of left and right paw touches on the wall (cylinder),"C57Bl/6 mice; wildtype mice, 14-Days oral gavage, 6-OHDA in right striatum, FIG. 7a",improved
same,Motor coordination on rotating cylinder (rotarod),SIRT3 KO mice,improved motor coordination
same,Brain volume loss in the cortex (MRI),N171-82Q HD mice [7]; FIG. 8b,minor loss
same,Brain volume loss in the striatum (MRI),N171-82Q HD mice [7]; FIG. 8c,minor loss
same,"Medium spiny neurons, biomarker DARPP32","N171-82Q HD mice [8]; 26-weeks of age, FIG. 8d",preserves medium spiny neurons
same,"General neuronal loss, postsynaptic protein PSD95 levels","N171-82Q HD mice [8]; N171-82Q HD mice, FIG. 8e",preserves general neuronal loss
same,Motor function in the balance beam,N171-82Q HD mice [9],improves motor function
same,Motor function in the tapered beam,N171-82Q HD mice [9],improves motor function
same,Infarct volume,[10],reduce infarct volume
same,ROSs species,[10],lower ROSs species
